# Where two headings read alike, the source gives them in different places.
# How the values were obtained:
# [1] = cited from earlier work
# [2] = cited from earlier work; for Cmax / AUC0-24 h: Caucasians 18-60 years of age; for Cmax: in ng/mL; for AUC0-24 h: in ng·h/mL
# [3] = cited from earlier work; for Cmax / Tmax: arterial
# [4] = Pharmacokinetics of inhaled (nebulized) esketamine versus IV infusion, arterial concentrations; settings: comparison across Examples 3 and 4, not within the same individuals
# [5] = cited from earlier work; remark: listed apart in the source
# [6] = clinical; settings: human, in vivo
# [7] = IN administration, based upon the models
# [8] = inhalation of 0.35 mg/kg esketamine
# [9] = inhalation of 0.5 mg/kg esketamine
# [10] = inhalation of 0.7 mg/kg esketamine
structure (smiles),measurement,setting,value
Cc1cccc([C@H](C)c2cnc[nH]2)c1C [dexmedetomidine],"disposition, intravenous versus intranasal administration",[1]; 2-compartment disposition model,similar
same,intranasal bioavailability,[1]; both atomization and drops,~40%
same,uptake kinetics of atomized and intranasal relative to IV,"[1]; in vivo, iv",slower update kinetics
same,absorption rate constant (kabs),[1]; intranasal by atomizer,0.857 h⁻¹
same,mean transit time (delay in uptake),[1]; intranasal by atomizer,0.176 h
same,absorption rate constant (kabs),[1]; intranasal by drops,0.725 h⁻¹
same,mean transit time (delay in uptake),[1]; intranasal by drops,0.163 h
"CN[C@]1(c2ccccc2Cl)CCCCC1=O [esketamine, S-ketamine]",Cmax,[2]; 28 mg IN esketamine,43.8
same,AUC0-24 h,[2]; 28 mg IN esketamine,147.3
same,Cmax,[2]; 56 mg IN esketamine,72.5
same,AUC0-24 h,[2]; 56 mg IN esketamine,254.7
same,Cmax,[2]; 84 mg IN esketamine,101
same,AUC0-24 h,[2]; 84 mg IN esketamine,362.2
same,fraction of dose absorbed through the nasal cavity,[2]; [7],~54%
same,fraction of dose swallowed,[2]; [7],46%
same,swallowed percentage reaching the systemic circulation after first-pass metabolism,[2]; IN administration,18.6%
same,mean absorption time,[2]; absorption through the gut,2.02 h
same,mean absorption time,[2]; absorption through the nasal mucosa,0.333 h
same,absolute bioavailability,[2]; intranasal,~50%
same,fraction of dose directly absorbed through the alveoli,[3]; INH administration,70%
same,"fraction of dose travelling via a slower pathway (lung, GI or oropharyngeal absorption)",[3]; INH administration,30%
same,rate constant of the slow transit,[3]; INH administration,0.05 min⁻¹
same,half-life of the slow transit,"[3]; INH administration, from rate constant",13 min
same,dose-dependent reduction in bioavailability,"[3]; INH, at the higher doses",20%
same,modeled F value (extent of bioavailability),"[3]; across INH doses, multicompartment model",0.70
same,bioavailability,[3]; following INH administration,70%
same,fraction metabolized to noresketamine,[3]; in vivo,78%
same,Cmax,[3]; [8],128 ng/mL
same,Tmax,[3]; [8],22 min
same,Cmax,[3]; [9],180 ng/mL
same,Tmax,[3]; [9],15 min
same,Cmax,[3]; [10],227 ng/mL
same,Tmax,[3]; [10],25 min
same,absorption following INH versus IN,[4],more rapid
C=CCN1CC[C@]23c4c5ccc(O)c4O[C@H]2C(=O)CC[C@@]3(O)[C@H]1C5 [naloxone],"K (elimination rate constant), best-fit value","0.4 mg IV, single elimination model",12.16 h⁻¹
same,kabs (absorption rate constant),"IN doses of 1, 2 and 4 mg, best fit of one-phase association and dissociation model",4.47 h⁻¹
same,"elimination rate-constant, mean value","IN doses of 1, 2 and 4 mg, model fit",0.82 h⁻¹
same,bioavailability,[5]; IM/SC dose,98.3%
same,bioavailability,[5]; nasal spray,40-55%
same,Cmax,[6]; 1 mg,2.1 ng/mL
same,Cmax,[6]; 2 mg,4.3 ng/mL
same,Cmax,[6]; 4 mg,10.1 ng/mL
same,half-life,"[6]; iv, 0.4 mg",3.4 min
N[C@]1(c2ccccc2Cl)CCCCC1=O [noresketamine],Cmax,[2]; 28 mg IN esketamine,59.1
same,AUC0-24 h,[2]; 28 mg IN esketamine,274.4
same,Cmax,[2]; 56 mg IN esketamine,119.7
same,AUC0-24 h,[2]; 56 mg IN esketamine,516.3
same,Cmax,[2]; 84 mg IN esketamine,180
same,AUC0-24 h,[2]; 84 mg IN esketamine,758
same,Cmax,[3]; [8],52 ng/mL
same,Tmax,[3]; [8],63 min
same,Cmax,[3]; [9],97 ng/mL
same,Tmax,[3]; [9],48 min
same,Cmax,[3]; [10],153 ng/mL
same,Tmax,[3]; [10],41 min
